According to publication PMC9953224, “Pharmacokinetic Evaluation of New Drugs Using a Multi-Labelling Approach and PET Imaging: Application to a Drug Candidate with Potential Application in Neuromuscular Disorders” (Biomedicines, 2023):

Experiments:
[1] = Pharmacokinetics from metabolite-corrected arterial plasma TACs after intravenous administration; type: in vivo, Sprague Dawley Rats
Protocol: (§1) Anaesthesia was induced with 5% isoflurane (IsoFlo®, Abbott Laboratories, Abbott Park, IL, USA) and maintained by 2% of isoflurane in 100% O2. During the experiment, rats were kept normothermic using a heating blanket (Homeothermic Blanket Control Unit; Bruker). The rat was positioned in supine position on an operating table and the two distal hind limbs were fixed forming an approximately 30° angle with the horizontal plane. The surgical region was scrubbed using Betadine, starting in the centre, and making a circular sweep outward. A skin incision was made in the femoral region. Soft tissue was dissected to expose the femoral neurovascular bundle, consisting of femoral vein, artery, and nerve. Fine tip forceps were placed between the artery, vein and nerve and were slowly opened to separate the vessels, exposing an approximately 1 cm length section of artery/vein. The vena profunda femoris was sutured to avoid retrograde bleeding via this vessel, and the sapheno-femoral junction was cauterized. A few millimetres from venatomy, a vascular clip was inserted in the direction of the catheter (to control the flow) and a suture was applied in the opposite direction (to avoid retrograde bleeding). The same operation was carried out both on the femoral vein and femoral artery. An appropriate syringe filled with 50 U/mL Heparin/physiologic saline solution was fixed at the terminus of the catheters and these were filled with heparinized saline solution. On the upper half of the vessel circumference, at a 45° angle, an incision was made and the catheter (fine bore polythene tubing: ID 0.58 mm, OD 0.98 mm) was inserted through the venotomy and advanced to the vascular clip. The vascular clip was then removed, and the catheter advanced distally towards the level of the inguinal ligament. The catheter was finally secured to the femoral vein/artery proximally and distally with 2 single knots using 4–0 braided silk suture. The catheters were connected to an in-house developed system composed by a peristaltic pump and gamma-radiation coincidence detector (Bioscan, B-FC-4100). The femoral artery catheter, the gamma detector, the peristaltic pump, and the femoral vein catheter were thus connected in series, to enable the extracorporeal circulation of blood (flow 150 μL/s from femoral artery to femoral vein) and continuous measurement of radioactivity in the blood (Figure 1).
(§2) The labelled compounds were administrated two different ways: (i) intravenous bolus infusion (ca. 37 MBq in 300 μL of saline solution was injected through the femoral vein catheter) and (ii) oral bolus administration. For oral administration, animals were fasted for 5 h. The radioactive dose (ca. 74 MBq in 300 μL of saline solution) was administered using flexible 20-gauge disposable flexible PTFE feeding needles (Fine Science Tools, F.S.T.) and a small animal Laryngoscope (Penn-Century, Model LS-2) for the correct visualization of the oesophagus. The study was conducted under no carrier added (NCA, dose adjusted to 1 μg/Kg) and carrier added (CA, dose adjusted to 5 mg/Kg) conditions. In all cases, data were imported in real time to an excel sheet using PLX-DAX add-on for Microsoft Excel (measured in volts per second).
(§3) Arterial blood samples (1 per animal) were withdrawn (see Figure 1) from the femoral artery catheter and introduced into a capillary (Microhaematocrit capillaries 75 × 1.55, Nahita). Samples were centrifuged at 11,000× g […] for 10 min and the haematocrit was determined. A second blood sample was withdrawn and the amount of radioactivity of a fixed volume (10 µL) was measured in an automatic gamma counter (2470 Wizard, PerkinElmer) to determine Cb (concentration of radioactivity in blood) and convert data imported with PLX-DAX (Volts per seconds) into Bq/s using a previously determined calibration curve. Values were then expressed as percentage of injected dose per gram of blood (% ID/g). […]

[2] = Pharmacokinetics from metabolite-corrected arterial plasma TACs after oral administration; type: in vivo, Sprague Dawley Rats
Protocol: as §1, §2, §3

[3] = PET biodistribution after intravenous administration; type: in vivo, rats; conditions: 1 µg/Kg
Protocol: Rats were anesthetized by inhalation of 5% isoflurane (IsoFlo®, Abbott Laboratories, Abbott Park, IL, USA) in pure O2 and maintained by 1.5–2% isoflurane in 100% O2. During imaging, rats were kept normothermic using a heating blanket (Homeothermic Blanket Control Unit; Bruker). For intravenous administration, once the animal was under anaesthesia, one of the lateral tail veins was catheterized with a 24-gauge catheter (Introcan Certo®, Bbraun) and [^11C]AHK2.1 or [^11C]AHK2.2 was injected using saline solution as the vehicle (n = 3 for each radiolabelled compound, 26 ± 5 MBq; dose adjusted to 1 µg/Kg) concomitantly with the start of a PET dynamic acquisition. Whole body dynamic images were acquired in 4 bed positions (21 frames: 5 × 5 s per bed, 5 × 30 s per bed, 5 × 60 s per bed, 6 × 120 s per bed; total acquisition time = 79.6 min) in the 400–700 keV energetic window using an eXploreVista-CT small animal PET-CT system (GE Healthcare, Waukesha, WI, USA). After each PET scan, CT acquisitions were also performed (140 µA intensity, 40 kV voltage) to provide anatomical information of each animal as well as the attenuation map for the later reconstruction of the PET images. […] After reconstruction, PET-CT images of the same animal were co-registered and analysed using PMOD image processing tool (PMOD Technologies Ltd., Zürich, Switzerland). […]

FKBP12 = molecular target: T1, FKBP12 (Homo sapiens, UniProt P62942); assay: Competitive ligand binding assay (FKBP/FRB NanoBiT luminescence protein complementation) in HEK293 cells; type: cell-based; conditions: rapamycin 30 nM
T1 construct: host or cells: HEK293
T1 sequence (P62942 whole entry): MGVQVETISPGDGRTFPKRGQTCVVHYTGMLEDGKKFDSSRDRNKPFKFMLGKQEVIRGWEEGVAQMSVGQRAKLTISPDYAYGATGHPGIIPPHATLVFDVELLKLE
Protocol: Briefly, HEK293 (ATCC) cells were transfected with FKBP/FRB NanoBiT Control Pair (Promega, Madison, WI, USA) and kinetic measurements were performed 24 h after transfection with Nano-Glo Live Cell Reagent (Promega), as described by the manufacturer. A total of 30 nM rapamycin (Sigma-Aldrich, Madrid, Spain) and AHK2 (1 μM–10 mM) was sequentially added and each effect was recorded for 10 min. Specific activity was normalized to vehicle, and IC50 was calculated using GraphPad Prism by fitting the data to a four-parameter logistic curve.

SMILES	Cp/Cb ratio (radioactivity in plasma / blood) ([1]; arterial blood, rat)	percentage of radioactivity in plasma ([1]; from Cp/Cb and haematocrit 0.44 ± 0.04)	Hill function parameter d (initial level of parent fraction) ([1]; intravenous)	Hill function parameter a (plateau of parent fraction in plasma) ([1]; intravenous, 1 µg/Kg)	Hill function parameter a (plateau of parent fraction in plasma) ([1]; intravenous, 5 mg/Kg)	Hill function parameter d (initial level of parent fraction) [2]	Hill function parameter a (plateau of parent fraction in plasma) ([2]; 1 µg/Kg)	Hill function parameter a (plateau of parent fraction in plasma) ([2]; 5 mg/Kg)	biodistribution of radioactivity in dynamic PET images [3]	induction of FKBP12/FRB dimerization (luminescence) (FKBP12)
COc1ccc(SCc2cn(CCN(C)[11CH3])nn2)cc1 [[^11C]AHK2.1]	1.44 ± 0.2	ca. 81%	1	0.075	0.29	1	0.10	0.13	accumulation in the gastrointestinal tract, the kidneys and the bladder	–
CN(C)CCn1cc(CSc2ccc(O[11CH3])cc2)nn1 [[^11C]AHK2.2]	–	–	–	–	–	–	–	–	rapid accumulation of radioactivity in the kidneys and elimination via urine	–
CO[C@H]1C[C@@H]2CC[C@@H](C)[C@@](O)(O2)C(=O)C(=O)N2CCCC[C@H]2C(=O)O[C@H]([C@H](C)C[C@@H]2CC[C@@H](O)[C@H](OC)C2)CC(=O)[C@H](C)/C=C(\C)[C@@H](O)[C@@H](OC)C(=O)[C@H](C)C[C@H](C)/C=C/C=C/C=C/1C [rapamycin, reference compound]	–	–	–	–	–	–	–	–	–	induced
